{"source": "patent US20230165835A1", "about": "“METHODS OF TREATING ACUTE LUNG INJURY USING EBSELEN” (SOUND PHARMACEUTICALS INC., priority 2020, published 2023)", "key": {"[1]": {"experiment": "Study 6.3: ebselen in mild to moderate COVID-19", "type": "in vivo, human", "details": "400 to 600 mg BID for 14 to 21 days"}, "[2]": {"experiment": "Solubility in aqueous solutions", "details": "25° Celsius"}, "nCoV2": {"tested_on": "nCoV2", "experiment": "Study 6.2: ebselen in nCoV2 positive subjects with no to mild COVID-19, viral load", "details": "400 to 600 mg BID for 7-10 days, no to mild disease", "quoted_text": "Eligible participants are diagnosed as nCoV2 positive and enrolled for treatment within 1-5 days of appearance of symptoms. The patient is not treated with another anti-viral therapeutic agent prior to beginning of treatment. […] Randomization is stratified by age (<60 years or ≥60 years).\nEbselen is dosed as 400 to 600 mg BID for a period of 7-10 days. […] Participants receive study intervention for up to 10 days and are followed for 28 days after first dose.\nRespiratory samples are taken before treatment begins and daily during treatment to assess nCoV2 viral load daily.\nThe primary efficacy endpoint is the time to significant reduction in pre-treatment viral load (see Zou et al.; Pan et al.). […] Other efficacy assessments are also performed and compared to baseline levels.\nFollow-up assessments can be performed at 2, 4, and 8 weeks after the start of treatment. […] Extended dosing involves sub-chronic dosing of 4-12 weeks (e.g., 4, 8 or 12 weeks) with assessment of viral load until virus eliminated."}, "[3]": {"details": "mice; Longenecker et al.; cited from earlier work"}, "[4]": {"experiment": "Cystic fibrosis trial Part 2 Intervention: tobramycin-induced ototoxicity", "type": "in vivo, human", "experimental": "Thirty of 80 participants were enrolled starting in January 2019. They were Cystic fibrosis patients ages 18-70 that had acute pulmonary exacerbation or acute respiratory infections that required treatment with IV tobramycin 10 mg/kg/d for 10-21 days. They were randomized into four groups (1:1:1:1) (0, 200, 400, or 600 BID) and treated for 21 days. There were four follow-up visits for safety (adverse events, spirometry, labs), and two follow-up visits for efficacy (audiometric and vestibular). The primary endpoint was a reduction in cochleotoxic change, and the secondary endpoints was a reduction in tinnitus or vertigo severity."}, "[5]": {"experiment": "Study 6.4: ebselen in moderate COVID-19", "type": "in vivo, human", "details": "400 or 800 mg BID for 7 days"}, "[6]": {"experiment": "Cystic fibrosis trial: sentinel Pk, plasma tobramycin levels (DDI)", "type": "in vivo, human"}, "[7]": {"target": "COVID-19 virus main protease (M^pro) (Severe acute respiratory syndrome coronavirus 2, UniProt P0DTD1)", "details": "Jin et al.; cited from earlier work"}, "SARS-CoV-2": {"tested_on": "SARS-CoV-2", "experiment": "Reduction of SARS-CoV-2 viral load in Vero E6 cells (image based assay of Jin et al.)", "type": "cell-based"}, "[8]": {"details": "Part 2 Intervention (1:1:1:1) pooled"}}, "note": "Like-named read-outs stand apart in the source and are kept apart here."}
{"molecule": "O=c1c2ccccc2[se]n1-c1ccccc1", "note": "[ebselen, 2-phenyl-1,2-benzisoselenazol-3(2H)-one]", "values": [{"measurement": "respiratory status and progression to severe disease", "setting": "[1]", "result": "effective to improve in respiratory status and prevent progression to severe disease"}, {"measurement": "solubility in aqueous solutions", "setting": "[2]", "result": "slightly soluble"}, {"measurement": "viral load", "setting": "nCoV2", "result": "effective to reduce viral load"}, {"measurement": "tinnitus and hyperacusis following amikacin-induced ototoxicity", "setting": "[3]", "result": "improvements in tinnitus and hyperacusis"}, {"measurement": "ototoxic change versus Part 1 Observational study", "setting": "[4]; 4 weeks after IV tobramycin treatment", "result": "lower levels of ototoxic change"}, {"measurement": "% Responders (Bilateral), Conv + SRO", "setting": "[4]; [8]", "result": 29, "unit": "%"}, {"measurement": "% Responders (Bilateral), Conventional", "setting": "[4]; [8]", "result": 5, "unit": "%"}, {"measurement": "% Responders (Bilateral), DPOAE", "setting": "[4]; [8]", "result": 40, "unit": "%"}, {"measurement": "% Responders (Bilateral), SRO", "setting": "[4]; [8]", "result": 21, "unit": "%"}, {"measurement": "% Responders (Bilateral), WINT", "setting": "[4]; [8]", "result": 0, "unit": "%"}, {"measurement": "% Responders (Unilateral), Conv + SRO", "setting": "[4]; [8]", "result": 29, "unit": "%"}, {"measurement": "% Responders (Unilateral), Conventional", "setting": "[4]; [8]", "result": 5, "unit": "%"}, {"measurement": "% Responders (Unilateral), DPOAE", "setting": "[4]; [8]", "result": 40, "unit": "%"}, {"measurement": "% Responders (Unilateral), SRO", "setting": "[4]; [8]", "result": 37, "unit": "%"}, {"measurement": "% Responders (Unilateral), WINT", "setting": "[4]; [8]", "result": 26, "unit": "%"}, {"measurement": "% Responders, Conv + SRO", "setting": "[4]; [8]", "result": 57, "unit": "%"}, {"measurement": "% Responders, DPOAE", "setting": "[4]; [8]", "result": 80, "unit": "%"}, {"measurement": "% Responders, SRO", "setting": "[4]; [8]", "result": 58, "unit": "%"}, {"measurement": "% Responders, TFI", "setting": "[4]; [8]", "result": 14, "unit": "%"}, {"measurement": "% Responders, TL", "setting": "[4]; [8]", "result": 0, "unit": "%"}, {"measurement": "% Responders, VSS", "setting": "[4]; [8]", "result": 5, "unit": "%"}, {"measurement": "% Responders, WINT", "setting": "[4]; [8]", "result": 26, "unit": "%"}, {"measurement": "% Responders, Conventional", "setting": "[4]; Part 2 Intervention (1:1:1:1; 0, 200, 400, 600 BID pooled) with IV tobramycin, 4 weeks post-treatment", "result": 10, "unit": "%"}, {"measurement": "respiratory status and progression to severe disease", "setting": "[5]", "result": "effective to improve in respiratory status and prevent progression to severe disease"}, {"measurement": "change in plasma tobramycin levels (DDI)", "setting": "[6]", "result": "no significant change in plasma tobramycin levels"}, {"measurement": "in vitro inhibition activity against M^pro protease", "setting": "[7]", "result": "modest in vitro inhibition activity"}, {"measurement": "EC50", "setting": "SARS-CoV-2; SARS-CoV-2, ebselen 100 nM to 1000 μM in DMSO or EtOH, remdesivir 1 nM to 10 μM, listed as ebselen (EtOH), read-out: EC50, reduction in viral load in Vero E6 cells", "result": 10.9, "unit": "µM"}, {"measurement": "EC50", "setting": "SARS-CoV-2; Severe acute respiratory syndrome coronavirus 2, Vero C1008, SARS-CoV-2, ebselen 100 nM to 1000 μM in DMSO or EtOH, remdesivir 1 nM to 10 μM, read-out: EC50, reduction in viral load in Vero E6 cells", "result": 21.3, "unit": "µM"}, {"measurement": "EC50", "setting": "SARS-CoV-2; Severe acute respiratory syndrome coronavirus 2, Vero C1008, Vero E6 cells, ebselen added in DMSO, read-out: EC50, inhibition of viral load", "result": 21, "unit": "µM"}, {"measurement": "EC50", "setting": "SARS-CoV-2; Severe acute respiratory syndrome coronavirus 2, Vero C1008, Vero E6 cells, ebselen added in EtOH, read-out: EC50, inhibition of viral load", "result": 11, "unit": "µM"}, {"measurement": "inhibition of viral load (FIGS. 1A-C)", "setting": "SARS-CoV-2; in vitro kidney cell assay (Vero E6 cells)", "result": "inhibited viral load"}]}
